This note sets out measurements from paper PMC8887546, “Design and Synthesis of Brain Penetrant Glycopeptide Analogues of PACAP With Neuroprotective Potential for Traumatic Brain Injury and Parkinsonism” (Frontiers in drug discovery, 2022).

What is called EC50 is the concentration needed to bring the measured effect to its halfway point. As a reminder, the Emax is the size of the effect at its maximum, as opposed to the concentration needed.

Common to all, as to format: cell-based
For one assay, the target named is T1, human PAC1 receptor (Homo sapiens, UniProt P41586).
T1 construct: expressed in transfected cells; host or cells: CHO cells (G418 selection)
T1 sequence (P41586 21-468): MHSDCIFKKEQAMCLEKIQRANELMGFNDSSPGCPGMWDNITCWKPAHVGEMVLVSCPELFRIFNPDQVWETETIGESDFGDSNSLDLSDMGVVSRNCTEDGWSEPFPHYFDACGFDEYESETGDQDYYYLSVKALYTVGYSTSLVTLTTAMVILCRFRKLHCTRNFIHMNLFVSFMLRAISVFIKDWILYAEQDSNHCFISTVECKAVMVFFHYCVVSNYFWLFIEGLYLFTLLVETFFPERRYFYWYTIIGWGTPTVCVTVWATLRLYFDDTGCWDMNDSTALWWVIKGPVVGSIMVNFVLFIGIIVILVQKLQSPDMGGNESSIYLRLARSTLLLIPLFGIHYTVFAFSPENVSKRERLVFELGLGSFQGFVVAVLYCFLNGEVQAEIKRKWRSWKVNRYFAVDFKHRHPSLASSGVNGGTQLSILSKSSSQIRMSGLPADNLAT
The assay is described as follows: cAMP stimulation in CHO cells expressing PAC1. As to conditions: for Emax: CHO. The method, then:
(§1) Briefly, human PAC1, VPAC1, and VPAC2 receptors expressed in CHO cells were used for all experiments. Cells were grown in 50:50 DMEM-F12 medium with 10% heat-inactivated fetal bovine serum, 1X penicillin-streptomycin supplement, and 500 μg/ml G418 (neomycin) to maintain selection (all from ThermoFisher) at 37°C with 5% CO2 atmosphere. For the cAMP assay, cells were seeded at 20,000 cells/well in a 96 well plate, recovered overnight, then serum starved for 4 h. The cells were then incubated with 500 μM IBMX for 20 min, followed by agonist concentration curves in 500 μM IBMX media for 10 min. The reaction was terminated, boiled, then collected, followed by competition with 7 μg of bovine protein kinase A (Sigma-Aldrich) and ∼1 pmol of ^3H-cAMP (PerkinElmer). The assay was incubated at room temp for 1 h, then collected onto GF/B filter plates and the data read using a MicroBeta2 scintillation counter (PerkinElmer).

The next assay deals with T2, human VPAC1 receptor (Homo sapiens, UniProt P32241).
T2 construct: expressed in transfected cells; host or cells: CHO cells (G418 selection)
T2 sequence (P32241 31-457): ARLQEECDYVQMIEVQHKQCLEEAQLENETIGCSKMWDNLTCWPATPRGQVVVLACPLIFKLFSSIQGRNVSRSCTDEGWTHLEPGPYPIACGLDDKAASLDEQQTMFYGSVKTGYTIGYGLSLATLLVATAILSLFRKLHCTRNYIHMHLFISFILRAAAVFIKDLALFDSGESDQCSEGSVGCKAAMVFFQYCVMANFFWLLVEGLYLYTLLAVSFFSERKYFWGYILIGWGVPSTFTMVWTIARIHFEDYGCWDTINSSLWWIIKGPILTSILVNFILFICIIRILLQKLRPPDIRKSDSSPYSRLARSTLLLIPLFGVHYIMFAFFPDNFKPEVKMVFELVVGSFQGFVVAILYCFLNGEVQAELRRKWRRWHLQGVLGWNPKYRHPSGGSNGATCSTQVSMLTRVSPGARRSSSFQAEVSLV
The assay is described as follows: cAMP stimulation in CHO cells expressing VPAC1. As to conditions: for Emax: CHO, read-out: VPAC1 Emax; for EC50: read-out: VPAC1 EC50.

The target in the next assay is T3, human VPAC2 receptor (Homo sapiens, UniProt P41587).
T3 construct: expressed in transfected cells; host or cells: CHO cells (G418 selection)
T3 sequence (P41587 24-438): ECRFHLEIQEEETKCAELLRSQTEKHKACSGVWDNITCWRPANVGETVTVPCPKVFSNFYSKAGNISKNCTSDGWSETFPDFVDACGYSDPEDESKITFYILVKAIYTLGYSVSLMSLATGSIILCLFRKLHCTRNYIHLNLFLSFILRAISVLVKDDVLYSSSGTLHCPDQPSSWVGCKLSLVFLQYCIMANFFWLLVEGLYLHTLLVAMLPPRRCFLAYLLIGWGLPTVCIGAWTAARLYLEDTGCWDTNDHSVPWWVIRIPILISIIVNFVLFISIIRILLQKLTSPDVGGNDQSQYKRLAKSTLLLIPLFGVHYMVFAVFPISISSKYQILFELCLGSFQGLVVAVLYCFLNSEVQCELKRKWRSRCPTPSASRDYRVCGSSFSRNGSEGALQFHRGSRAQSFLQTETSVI
As to the kind of experiment: cAMP stimulation in CHO cells expressing VPAC2. As to conditions: for Emax: CHO. As for the experimental part:
as §1

Bounds are passed on as bounds.

Regarding `CC[C@H](C)[C@H](NC(=O)CNC(=O)[C@H](CC(=O)O)NC(=O)[C@H](CO)NC(=O)[C@H](Cc1c[nH]cn1)NC(C)=O)C(=O)N[C@@H](Cc1ccccc1)C(=O)N[C@H](C(=O)N[C@@H](CC(=O)O)C(=O)N[C@@H](CO)C(=O)N[C@@H](Cc1ccc(O)cc1)C(=O)N[C@@H](CO)C(=O)N[C@@H](CCCNC(=N)N)C(=O)N[C@@H](Cc1ccc(O)cc1)C(=O)N[C@@H](CCCNC(=N)N)C(=O)N[C@@H](CCCCN)C(=O)N[C@@H](CCC(N)=O)C(=O)N[C@@H](CC(C)C)C(=O)N[C@@H](C)C(=O)N[C@H](C(=O)N[C@@H](CCCCN)C(=O)N[C@@H](CCCCN)C(=O)N[C@@H](Cc1ccc(O)cc1)C(=O)N[C@@H](CC(C)C)C(=O)N[C@@H](C)C(=O)N[C@@H](C)C(=O)N[C@H](C(=O)N[C@@H](CC(C)C)C(=O)N[C@@H](CO[C@@H]1O[C@H](CO)[C@@H](O[C@@H]2O[C@H](CO)[C@H](O)[C@H](O)[C@H]2O)[C@H](O)[C@H]1O)C(N)=O)C(C)C)C(C)C)[C@@H](C)O` [Ac-2LS132], at human PAC1 receptor, the EC50 is 2.8 nM and the Emax was 96%. Besides, at human VPAC1 receptor, the Emax was 98% and the EC50 came out at 2.2 nM. In addition, the “Receptor selectivity ratio VPAC1/PAC1” value on human VPAC1 receptor (ratio of cAMP EC50 values) was 0.79. At human VPAC2 receptor, this compound displayed an EC50 of 27.2 nM and an Emax of 101%. Moreover, on human VPAC2 receptor (ratio of cAMP EC50 values), the “Receptor selectivity ratio VPAC2/PAC1” value was 9.71 and the “Receptor selectivity ratio VPAC2/VPAC1” value is 12.36.

As for `CCC[C@H](NC(=O)[C@H](CCC(N)=O)NC(=O)[C@H](CCCCN)NC(=O)[C@H](CCCNC(=N)N)NC(=O)[C@H](Cc1ccc(O)cc1)NC(=O)[C@H](CCCNC(=N)N)NC(=O)[C@H](CO)NC(=O)[C@H](Cc1ccc(O)cc1)NC(=O)[C@H](CO)NC(=O)[C@H](CC(=O)O)NC(=O)[C@@H](NC(=O)[C@H](Cc1ccccc1)NC(=O)[C@@H](NC(=O)CNC(=O)[C@H](CC(=O)O)NC(=O)[C@@H](CO)NC(=O)[C@H](Cc1c[nH]cn1)NC(C)=O)[C@@H](C)CC)[C@@H](C)O)C(=O)N[C@@H](C)C(=O)N[C@H](C(=O)N[C@@H](CCCCN)C(=O)N[C@@H](CCCCN)C(=O)N[C@@H](Cc1ccc(O)cc1)C(=O)N[C@@H](CC(C)C)C(=O)N[C@@H](C)C(=O)N[C@@H](C)C(=O)N[C@H](C(=O)N[C@@H](CC(C)C)C(=O)N[C@@H](CO[C@@H]1O[C@H](CO)[C@@H](O)[C@H](O)[C@H]1O)C(N)=O)C(C)C)C(C)C` [Ac-CRA3000], the Emax on human PAC1 receptor was 90%; at human VPAC1 receptor, 94%; at human VPAC2 receptor, 106%.

Take `CCC[C@H](NC(=O)[C@H](CCC(N)=O)NC(=O)[C@H](CCCCN)NC(=O)[C@H](CCCNC(=N)N)NC(=O)[C@H](Cc1ccc(O)cc1)NC(=O)[C@H](CCCNC(=N)N)NC(=O)[C@H](CO)NC(=O)[C@H](Cc1ccc(O)cc1)NC(=O)[C@H](CO)NC(=O)[C@H](CC(=O)O)NC(=O)[C@@H](NC(=O)[C@H](Cc1ccccc1)NC(=O)[C@@H](NC(=O)[C@@H](C)NC(=O)[C@H](CC(=O)O)NC(=O)[C@@H](CO)NC(=O)[C@H](Cc1c[nH]cn1)NC(C)=O)[C@@H](C)CC)[C@@H](C)O)C(=O)N[C@@H](C)C(=O)N[C@H](C(=O)N[C@@H](CCCCN)C(=O)N[C@@H](CCCCN)C(=O)N[C@@H](Cc1ccc(O)cc1)C(=O)N[C@@H](CC(C)C)C(=O)N[C@@H](C)C(=O)N[C@@H](C)C(=O)N[C@H](C(=O)N[C@@H](CC(C)C)C(=O)N[C@@H](CO[C@@H]1O[C@H](CO)[C@@H](O)[C@H](O)[C@H]1O)C(N)=O)C(C)C)C(C)C` [Ac-CRA3021]: the Emax at human PAC1 receptor was determined as 96%; at human VPAC1 receptor, 111%; on human VPAC2 receptor, 93%.

With `CCC[C@H](NC(=O)[C@H](CCC(N)=O)NC(=O)[C@H](CCCCN)NC(=O)[C@H](CCCNC(=N)N)NC(=O)[C@H](Cc1ccc(O)cc1)NC(=O)[C@H](CCCNC(=N)N)NC(=O)[C@H](CO)NC(=O)[C@H](Cc1ccc(O)cc1)NC(=O)[C@H](CO)NC(=O)[C@H](CC(=O)O)NC(=O)[C@@H](NC(=O)[C@H](Cc1ccccc1)NC(=O)[C@@H](NC(=O)CNC(=O)[C@H](CC(=O)O)NC(=O)[C@@H](CO)NC(=O)[C@H](Cc1c[nH]cn1)NC(C)=O)[C@@H](C)CC)[C@@H](C)O)C(=O)N[C@@H](C)C(=O)N[C@H](C(=O)N[C@@H](CCCCN)C(=O)N[C@@H](CCCCN)C(=O)N[C@@H](Cc1ccc(O)cc1)C(=O)N[C@@H](CC(C)C)C(=O)N[C@@H](C)C(=O)N[C@@H](C)C(=O)N[C@H](C(=O)N[C@@H](CC(C)C)C(=O)N[C@@H](CO[C@@H]1O[C@H](CO)[C@@H](O[C@@H]2O[C@H](CO)[C@H](O)[C@H](O)[C@H]2O)[C@H](O)[C@H]1O)C(N)=O)C(C)C)C(C)C` [Ac-CRA 3000-Lac], the values for the Emax on human PAC1 receptor, at human VPAC1 receptor and at human VPAC2 receptor were 86%, 99% and 114%, respectively.

Take `CCCC[C@H](NC(=O)CN(C)C(=O)[C@H](CC(=O)O)NC(=O)[C@@H](CO)NC(=O)[C@H](Cc1c[nH]cn1)NC(C)=O)C(=O)N[C@@H](Cc1ccccc1)C(=O)N[C@H](C(=O)N[C@@H](CC(=O)O)C(=O)N[C@@H](CO)C(=O)N[C@@H](Cc1ccc(O)cc1)C(=O)N[C@@H](CO)C(=O)N[C@@H](CCCNC(=N)N)C(=O)N[C@@H](Cc1ccc(O)cc1)C(=O)N[C@@H](CCCNC(=N)N)C(=O)N[C@@H](CCCCN)C(=O)N[C@@H](CCC(N)=O)C(=O)N[C@@H](CCC)C(=O)N[C@@H](C)C(=O)N[C@H](C(=O)N[C@@H](CCCCN)C(=O)N[C@@H](CCCCN)C(=O)N[C@@H](Cc1ccc(O)cc1)C(=O)N[C@@H](CC(C)C)C(=O)N[C@@H](C)C(=O)N[C@@H](C)C(=O)N[C@H](C(=O)N[C@@H](CC(C)C)C(=O)N[C@@H](CO[C@@H]1O[C@H](CO)[C@@H](O)[C@H](O)[C@H]1O)C(N)=O)C(C)C)C(C)C)[C@@H](C)O` [Ac-CRA 3018]: the EC50 on human PAC1 receptor was more than 2500 nM; on human VPAC1 receptor, 415 nM; on human VPAC2 receptor it was more than 2500 nM. In addition, the Emax was found to be 35% at human PAC1 receptor, 36% on human VPAC1 receptor and 31% at human VPAC2 receptor.

For `CCCC[C@@H](NC(=O)CNC(=O)[C@H](CC(=O)O)NC(=O)[C@@H](CO)NC(=O)[C@H](Cc1c[nH]cn1)NC(C)=O)C(=O)N[C@@H](Cc1ccccc1)C(=O)N[C@H](C(=O)N[C@@H](CC(=O)O)C(=O)N[C@@H](CO)C(=O)N[C@@H](Cc1ccc(O)cc1)C(=O)N[C@@H](CO)C(=O)N[C@@H](CCCNC(=N)N)C(=O)N[C@@H](Cc1ccc(O)cc1)C(=O)N[C@@H](CCCNC(=N)N)C(=O)N[C@@H](CCCCN)C(=O)N[C@@H](CCC(N)=O)C(=O)N[C@@H](CCC)C(=O)N[C@@H](C)C(=O)N[C@H](C(=O)N[C@@H](CCCCN)C(=O)N[C@@H](CCCCN)C(=O)N[C@@H](Cc1ccc(O)cc1)C(=O)N[C@@H](CC(C)C)C(=O)N[C@@H](C)C(=O)N[C@@H](C)C(=O)N[C@H](C(=O)N[C@@H](CC(C)C)C(=O)N[C@@H](CO[C@@H]1O[C@H](CO)[C@@H](O)[C@H](O)[C@H]1O)C(N)=O)C(C)C)C(C)C)[C@@H](C)O` [Ac-CRA 3019], the EC50 was 1640 nM at human PAC1 receptor and more than 2500 nM on human VPAC2 receptor. In addition, the Emax at human PAC1 receptor is 58%; on human VPAC1 receptor it was 18%; at human VPAC2 receptor, 62%.
